Assay results reported in patent US10689354B2, “Aminoazole derivative” (Teijin Pharma Limited, priority 2015, dated 2020).

Experiments:
[1] = target: T1, androgen receptor (AR-LBD) (Rattus norvegicus, UniProt P15207); test: Evaluation of androgen receptor affinity (PolarScreen Androgen Receptor Competitor Assay Kit, Red; fluorescence polarization); conditions: 22° C. for 5 hours, relative to binding rate of 1 μM DHT, read-out: AR affinity (pEC50) (converted)
T1 construct: 5 μL of 2×AR-LBD/Fluoromone AL Red Complex contained in the kit; purchased Invitrogen
T1 sequence (P15207 651-882 limits assumed): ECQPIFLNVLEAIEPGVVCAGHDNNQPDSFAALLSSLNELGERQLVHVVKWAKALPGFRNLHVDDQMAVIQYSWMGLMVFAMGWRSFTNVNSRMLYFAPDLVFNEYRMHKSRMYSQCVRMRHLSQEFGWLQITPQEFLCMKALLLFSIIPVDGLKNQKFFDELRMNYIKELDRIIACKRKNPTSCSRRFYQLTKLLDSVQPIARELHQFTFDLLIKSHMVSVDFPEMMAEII
Procedure, shortened: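 Compounds were mixed with AR-LBD/Fluoromone AL Red complex and incubated 5 h at 22° C before fluorescence polarization was read. Binding was expressed relative to 1 μM dihydrotestosterone, and pEC50 (concentration giving 50% of that binding) came from a 4-parameter fit.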

human androgen receptor = target: T2, human androgen receptor (Homo sapiens, UniProt P10275); test: Reporter assay of an androgen receptor responsive sequence (luciferase, transiently transfected HEK293 cells); type: cell-based; conditions: 24 hours incubation, relative to activity of 100 nM DHT, read-out: AR transcriptive activity (pEC50) (converted)
T2 construct: expressed in transfected cells; host or cells: HEK293
T2 sequence (P10275 1-920): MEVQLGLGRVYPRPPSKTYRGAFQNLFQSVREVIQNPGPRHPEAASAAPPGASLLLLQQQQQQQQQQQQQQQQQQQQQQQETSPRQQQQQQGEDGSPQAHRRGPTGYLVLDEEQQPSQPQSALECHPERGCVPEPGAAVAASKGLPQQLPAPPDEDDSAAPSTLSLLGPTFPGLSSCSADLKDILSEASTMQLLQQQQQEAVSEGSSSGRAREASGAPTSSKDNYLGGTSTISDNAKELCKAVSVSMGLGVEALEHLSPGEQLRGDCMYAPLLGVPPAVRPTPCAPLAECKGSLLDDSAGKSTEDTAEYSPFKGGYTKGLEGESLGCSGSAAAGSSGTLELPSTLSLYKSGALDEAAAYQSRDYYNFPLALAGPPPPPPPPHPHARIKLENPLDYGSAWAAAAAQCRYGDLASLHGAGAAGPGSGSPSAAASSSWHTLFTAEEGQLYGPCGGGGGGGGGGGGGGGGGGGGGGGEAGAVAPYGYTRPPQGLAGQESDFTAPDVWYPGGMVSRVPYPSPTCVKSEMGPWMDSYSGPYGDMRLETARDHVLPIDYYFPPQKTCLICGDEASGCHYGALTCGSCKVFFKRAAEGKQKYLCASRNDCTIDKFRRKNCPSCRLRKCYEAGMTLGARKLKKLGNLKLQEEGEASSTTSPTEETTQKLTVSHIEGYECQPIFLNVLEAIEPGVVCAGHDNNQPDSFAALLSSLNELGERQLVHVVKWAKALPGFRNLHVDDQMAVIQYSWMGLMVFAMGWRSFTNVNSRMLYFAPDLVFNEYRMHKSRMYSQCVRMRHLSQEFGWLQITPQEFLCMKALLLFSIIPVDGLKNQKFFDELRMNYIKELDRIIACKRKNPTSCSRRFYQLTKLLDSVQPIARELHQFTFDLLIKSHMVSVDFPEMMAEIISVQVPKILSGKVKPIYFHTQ
Procedure, shortened: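 HEK293 cells transiently transfected for 3 h with ARE-firefly luciferase, full-length human AR and TK-Renilla plasmids, then exposed to compound for 24 h at 37 °C in 5% charcoal-treated FBS/DMEM. Dual-Glo luminescence read; pEC50 from 4-parameter fit relative to 100 nM DHT.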

EC50 [1]	EC50 (human androgen receptor)	Compound
31.6 nM	158 nM	Cc1sc(N(CCc2ccc(Cl)cc2)Cc2ccc(OC(F)(F)F)cc2)nc1C(=O)NS(=O)(=O)Cc1cccnc1 [Compound 703, 2-[2-(4-chlorophenyl)ethyl-[[4-(trifluoromethoxy)phenyl]methyl]amino]-5-methyl-N-(3-pyridylmethylsulfonyl)thiazole-4-carboxamide]
316 nM	631 nM	Cc1sc(N(Cc2ccc(F)cn2)c2ccc(C#N)cc2)nc1C(=O)NS(C)(=O)=O [Compound 517, 2-[4-cyano-N-[(5-fluoro-2-pyridyl)methyl]anilino]-5-methyl-N-methylsulfonyl-thiazole-4-carboxamide]
200 nM	> 10000 nM	Cc1sc(N(CCc2ccc(Cl)cc2)Cc2ccc(OC(F)(F)F)cc2)nc1C(=O)NS(=O)(=O)C1CC1 [Compound 702, 2-[2-(4-chlorophenyl)ethyl-[[4-(trifluoromethoxy)phenyl]methyl]amino]-N-cyclopropylsulfonyl-5-methyl-thiazole-4-carboxamide]
39.8 nM	63.1 nM	Cc1sc(N(Cc2ccc(Br)cc2F)c2ccc(C#N)cc2)nc1C(=O)NS(C)(=O)=O [Example 185, 2-[N-[(4-bromo-2-fluoro-phenyl)methyl]-4-cyano-anilino]-5-methyl-N-methylsulfonyl-thiazole-4-carboxamide]
398 nM	> 10000 nM	CCc1oc(N(Cc2ccc(OC(F)F)cn2)c2ccc(C#N)cc2)nc1C(=O)NS(C)(=O)=O [Compound 635, 2-[4-cyano-N-[[5-(difluoromethoxy)-2-pyridyl]methyl]anilino]-5-ethyl-N-methylsulfonyl-oxazole-4-carboxamide]
25.1 nM	158 nM	COCCCS(=O)(=O)NC(=O)c1nc(N(Cc2cc(F)cc(OC(F)F)c2)c2ccc(C#N)cc2)sc1C [Compound 519, 2-[4-cyano-N-[[3-(difluoromethoxy)-5-fluoro-phenyl]methyl]anilino]-N-(3-methoxypropylsulfonyl)-5-methyl-thiazole-4-carboxamide]
501 nM	1000 nM	Cc1sc(N(Cc2ncc(F)cc2F)c2ccc(C#N)cc2)nc1C(=O)NS(C)(=O)=O [Compound 527, 2-[4-cyano-N-[(3,5-difluoro-2-pyridyl)methyl]anilino]-5-methyl-N-methylsulfonyl-thiazole-4-carboxamide]
50.1 nM	126 nM	CS(=O)(=O)NC(=O)c1nc(N(Cc2cccc(OC(F)F)c2)c2ccc(C#N)cc2)sc1Cl [Example 276, 5-chloro-2-[4-cyano-N-[[3-(difluoromethoxy)phenyl]methyl]anilino]-N-methylsulfonyl-thiazole-4-carboxamide]
200 nM	> 10000 nM	COCCCS(=O)(=O)NC(=O)c1nc(N(Cc2ccc(Cl)cn2)c2ccc(C#N)cc2)sc1C1CC1 [Example 283, 2-[N-[(5-chloro-2-pyridyl)methyl]-4-cyano-anilino]-5-cyclopropyl-N-(3-methoxypropylsulfonyl)thiazole-4-carboxamide]
126 nM	1260 nM	CS(=O)(=O)NC(=O)c1nc(N(Cc2ccccc2)c2ccc(C#N)cc2)sc1C(F)(F)F [Example 230, 2-(N-benzyl-4-cyano-anilino)-N-methylsulfonyl-5-(trifluoromethyl)thiazole-4-carboxamide]
79.4 nM	2000 nM	Cc1oc(N(Cc2cccc(Cl)c2)c2ccc(C#N)cc2)nc1C(=O)NS(C)(=O)=O [Compound 611, 2-[N-[(3-chlorophenyl)methyl]-4-cyano-anilino]-5-methyl-N-methylsulfonyl-oxazole-4-carboxamide]
> 2000 nM	7940 nM	Cc1sc(N(Cc2ccc(Br)c(Cl)c2)c2ccc(C#N)cc2)nc1C(=O)NS(C)(=O)=O [Compound 528, 2-[N-[(4-bromo-3-chloro-phenyl)methyl]-4-cyano-anilino]-5-methyl-N-methylsulfonyl-thiazole-4-carboxamide]

Second part, the molecule before the results:

Compound	EC50 [1]	EC50 (human androgen receptor)
Cc1sc(N(Cc2ccc(F)cc2)c2ccc(C#N)cc2)nc1C(=O)NS(=O)(=O)Cc1cccnc1 [Compound 122, 2-[4-cyano-N-[(4-fluorophenyl)methyl]anilino]-5-methyl-N-(3-pyridylmethylsulfonyl)thiazole-4-carboxamide]	25.1 nM	20 nM
Cc1sc(N(Cc2ccc(Cl)c(F)c2)c2ccc(C#N)cc2)nc1C(=O)NS(C)(=O)=O [Compound 116, 2-[N-[(4-chloro-3-fluoro-phenyl)methyl]-4-cyano-anilino]-5-methyl-N-methylsulfonyl-thiazole-4-carboxamide]	31.6 nM	25.1 nM
Cc1sc(N(Cc2ccccc2)c2ccc(C#N)cc2)nc1C(=O)NS(C)(=O)=O [Compound 1, 2-(N-benzyl-4-cyano-anilino)-5-methyl-N-methylsulfonyl-thiazole-4-carboxamide]	63.1 nM	79.4 nM
Cc1sc(N(Cc2nc3ccccc3s2)c2ccc(C#N)cc2)nc1C(=O)NS(C)(=O)=O [Compound 497, 2-[N-(1,3-benzothiazol-2-ylmethyl)-4-cyano-anilino]-5-methyl-N-methylsulfonyl-thiazole-4-carboxamide]	126 nM	200 nM
Cc1sc(N(Cc2ccc(C(F)F)cc2F)c2ccc(C#N)cc2)nc1C(=O)NS(C)(=O)=O [Compound 156, 2-[4-cyano-N-[[4-(difluoromethyl)-2-fluoro-phenyl]methyl]anilino]-5-methyl-N-methylsulfonyl-thiazole-4-carboxamide]	39.8 nM	63.1 nM
Cc1sc(N(CCc2ccc(OC(F)F)cc2)Cc2ccccc2)nc1C(=O)NS(C)(=O)=O [Compound 160, 2-[benzyl-[2-[4-(difluoromethoxy)phenyl]ethyl]amino]-5-methyl-N-methylsulfonyl-thiazole-4-carboxamide]	100 nM	501 nM
Cc1sc(N(Cc2csc(COc3ccccc3)n2)c2ccc(C#N)cc2)nc1C(=O)NS(C)(=O)=O [Compound 465, 2-[4-cyano-N-[[2-(phenoxymethyl)thiazol-4-yl]methyl]anilino]-5-methyl-N-methylsulfonyl-thiazole-4-carboxamide]	25.1 nM	794 nM
Cc1sc(N(CCc2ccc(Cl)cc2)CC[C@H]2CCCC[C@@H]2O)nc1C(=O)NS(C)(=O)=O (racemic) [Compound 146, 2-[2-(4-chlorophenyl)ethyl-[2-[trans-2-hydroxycyclohexyl]ethyl]amino]-5-methyl-N-methylsulfonyl-thiazole-4-carboxamide]	50.1 nM	794 nM
Cc1sc(N(CCc2cccnc2)Cc2ccc(Cl)cc2)nc1C(=O)NS(C)(=O)=O [Compound 488, 2-[(4-chlorophenyl)methyl-[2-(3-pyridyl)ethyl]amino]-5-methyl-N-methylsulfonyl-thiazole-4-carboxamide]	> 2000 nM	> 10000 nM
Cc1sc(N(Cc2cc(F)ccc2Cl)c2ccc(C#N)cc2)nc1C(=O)NS(C)(=O)=O [Compound 108, 2-[N-[(2-chloro-5-fluoro-phenyl)methyl]-4-cyano-anilino]-5-methyl-N-methylsulfonyl-thiazole-4-carboxamide]	100 nM	501 nM
Cc1sc(N(CCc2ccc(F)cc2)Cc2ccccc2)nc1C(=O)NS(C)(=O)=O [Compound 340, 2-[benzyl-[2-(4-fluorophenyl)ethyl]amino]-5-methyl-N-methylsulfonyl-thiazole-4-carboxamide]	100 nM	251 nM
COc1cccc(CN(c2ccc(C#N)cc2)c2nc(C(=O)NS(C)(=O)=O)c(C)s2)n1 [Compound 491, 2-[4-cyano-N-[(6-methox-2-pyridyl)methyl]anilino]-5-methyl-N-methylsulfonyl-thiazole-4-carboxamide]	100 nM	316 nM
